Source: patent US20250034113A1, “SOLID STATE FORMS OF TAVAPADON AND PROCESSES FOR PREPARATION THEREOF” (TEVA CZECH INDUSTRIES S.R.O, priority 2021, published 2025)

Experiment: Stability test of crystalline forms at different relative humidities and temperatures, XRPD analysis
Type: physicochemical
Settings: for time stable after exposure to different relative humidity conditions at different temperatures: 25° C./60% RH and 40° C./75% RH, by XRPD; for XRPD analysis after storage: 2 month; for stability to conditions of relative humidity at elevated temperatures: general statement
Procedure: Powder X-ray Diffraction was performed on an X-Ray powder diffractometer PanAlytical X'pert Pro; CuKα radiation (λ=1.54187 Å); X'Celerator detector with active length 2.122 degrees 2-theta; laboratory temperature 25±3° C.; zero background sample holders. Prior to analysis, the samples were gently ground using a mortar and pestle to obtain a fine powder. The ground sample was adjusted into a cavity of the sample holder and the surface of the sample was smoothed using a cover glass.
• Scan range: 3-40 degrees 2-theta • Scan mode: continuous • Step size: 0.0167 degrees • […] s • Sample spin: 60 rpm • Sample holder: zero background silicon plate
Samples of Tavapadon form 1 and Form H1 were subjected to conditions of different relative humidities at different temperatures. XRPD analysis was performed on the samples after 2 month.
Samples of Tavapadon Form H1 were subjected to conditions of different relative humidities at different temperatures, over a time period of 6 months. XRPD analysis was performed on the samples after 2, 4 and 6 months.
Samples of Tavapadon Form R1 were subjected to conditions of different relative humidities at different temperatures, over a time period of 6 months. XRPD analysis was performed on the samples after 2, 4 and 6 months.

XRPD result (crystalline form) (0 M (start))	time stable after exposure to different relative humidity conditions at different temperatures	XRPD result (crystalline form) (25° C./60% RH, 2 M)	XRPD result (crystalline form) (25° C./60% RH, 4 M)	XRPD result (crystalline form) (25° C./60% RH, 6 M)	XRPD result (crystalline form) (40° C./75% RH, 2 M)	XRPD result (crystalline form) (40° C./75% RH, 4 M)	XRPD result (crystalline form) (40° C./75% RH, 6 M)	XRPD analysis after storage (25° C., 60% RH)	XRPD analysis after storage (40° C., 75% RH)	stability to conditions of relative humidity at elevated temperatures	Structure (SMILES)
Form R1	at least 6 months	Form R1	Form R1	Form R1	Form R1	Form R1	Form R1	–	–	–	Cc1cc(Oc2ncccc2C(F)(F)F)ccc1-c1c(C)c(=O)[nH]c(=O)n1C (racemic) [Tavapadon Form R1, 1,5-dimethyl-6-(2-methyl-4-{[3-(trifluoromethyl)pyridin-2-yl]oxy}phenyl)pyrimidine-2,4(1H,3H)-dione]
–	–	–	–	–	–	–	–	No change	No change	particularly stable	Cc1cc(Oc2ncccc2C(F)(F)F)ccc1-c1c(C)c(=O)[nH]c(=O)n1C (single isomer, unassigned) [Tavapadon Form 1, 1,5-dimethyl-6-(2-methyl-4-{[3-(trifluoromethyl)pyridin-2-yl]oxy}phenyl)pyrimidine-2,4(1H,3H)-dione]
Form H1	at least 6 months	Form H1	Form H1	Form H1	Form H1	Form H1	Form H1	No change	–	particularly stable	Cc1cc(Oc2ncccc2C(F)(F)F)ccc1-c1c(C)c(=O)[nH]c(=O)n1C (single isomer, unassigned) [Tavapadon Form H1, 1,5-dimethyl-6-(2-methyl-4-{[3-(trifluoromethyl)pyridin-2-yl]oxy}phenyl)pyrimidine-2,4(1H,3H)-dione]
